Results from patent US9512142B2, “Tricyclic triazolic compounds” (LABORATORIOS DEL DR. ESTEVE S.A., priority 2013, dated 2016).
Where two headings read alike, the source gives them in different places.

Assays:
Kinetic solubility = assay type: physicochemical; conditions: kinetic from dmso stock, buffered aqueous solution at pH=7.4, 10 μL of 10 mM DMSO solution in 1 mL, stirred 4 hours, supernatant by liquid chromatography, read-out: Kin. Solub.
Method: To a buffered aqueous solution at pH=7.4 (1 mL), a 10 mM DMSO solution of the test compound (10 μL) was added and the mixture stirred for 4 hours. After centrifugation, the compound concentration in the supernatant was determined by liquid chromatography by fitting in a calibration curve of the compound.

human sigma 1 receptor = molecular target: T1, human sigma 1 receptor (Homo sapiens, UniProt Q99720); test: Human sigma 1 receptor radioligand assay ([3H](+)-pentazocine, transfected HEK-293 membranes); assay type: binding
T1 construct: expressed in transfected cells; host or cells: HEK-293
T1 sequence (Q99720 whole entry): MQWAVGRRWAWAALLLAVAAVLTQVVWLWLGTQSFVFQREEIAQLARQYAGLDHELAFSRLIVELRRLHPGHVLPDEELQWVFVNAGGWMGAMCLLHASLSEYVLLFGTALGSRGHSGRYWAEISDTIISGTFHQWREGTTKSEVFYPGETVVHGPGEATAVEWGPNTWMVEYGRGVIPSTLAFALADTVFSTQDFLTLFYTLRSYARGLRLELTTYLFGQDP
Method: Human Sigma 1 Receptor Radioligand Assay
The assay was carried out with 7 μg of membrane suspension, 5 nM of [^3H](+)-pentazocine in either absence or presence of either buffer or 10 μM Haloperidol for total and non-specific binding, respectively. Binding buffer contained Tris-HCl 50 mM at pH 8. Plates were incubated at 37° C. for 120 minutes. After the incubation period, the reaction mix was then transferred to MultiScreen HTS, FC plates (Millipore), filtered and plates were washed 3 times with ice-cold 10 mM Tris-HCL (pH7.4). Filters were dried and counted at approximately 40% efficiency in a MicroBeta scintillation counter (Perkin-Elmer) using EcoScint liquid scintillation cocktail.

[1] = buffered aqueous solution, pH 7.4, aqueous buffer
[2] = 5 nM [3H](+)-pentazocine, transfected HEK-293 membranes, 37° C., 120 minutes, read-out: Ki

| Compound | solubility at 4 h (Kinetic solubility; [1]) [µM] | Ki (human sigma 1 receptor; [2]) [nM] | solubility at 4 h (Kinetic solubility; aqueous buffer) [µM] | Ki (human sigma 1 receptor) [nM] |
| --- | --- | --- | --- | --- |
| Cl.Fc1ccccc1-c1nnn2c1CO[C@H]1CN(C[C@H]3CCOC3)C[C@@H]12 [Example 15, (5aS,8aS)-3-(2-fluorophenyl)-7-(((R)-tetrahydrofuran-3-yl)methyl)-4,5a,6,7,8,8a-hexahydropyrrolo[3,4-b][1,2,3]triazolo[1,5-d][1,4]oxazine hydrochloride] | > 10 | 29.7 |  |  |
| Cl.Fc1ccccc1-c1nnn2c1CO[C@@H]1CN(C[C@@H]3CCOC3)C[C@H]12 [Example 16, (5aR,8aR)-3-(2-fluorophenyl)-7-(((S)-tetrahydrofuran-3-yl)methyl)-4,5a,6,7,8,8a-hexahydropyrrolo[3,4-b][1,2,3]triazolo[1,5-d][1,4]oxazine hydrochloride] | > 10 | 97.6 |  |  |
| Cl.Fc1ccccc1-c1nnn2c1CO[C@H]1CN(C[C@@H]3CCOC3)C[C@@H]12 [Example 17, (5aS,8aS)-3-(2-fluorophenyl)-7-(((S)-tetrahydrofuran-3-yl)methyl)-4,5a,6,7,8,8a-hexahydropyrrolo[3,4-b][1,2,3]triazolo[1,5-d][1,4]oxazine hydrochloride] | > 10 | 49.2 |  |  |
| Cl.Fc1ccccc1-c1nnn2c1CO[C@@H]1CN(C[C@H]3CCOC3)C[C@H]12 [Example 18, (5aR,8aR)-3-(2-fluorophenyl)-7-(((R)-tetrahydrofuran-3-yl)methyl)-4,5a,6,7,8,8a-hexahydropyrrolo[3,4-b][1,2,3]triazolo[1,5-d][1,4]oxazine hydrochloride] | > 10 | 171 |  |  |
| CCOc1ccc(CN2C[C@@H]3[C@@H](C2)OCc2c(-c4ccccc4F)nnn23)cn1.Cl [Example 19, (5aR,8aR)-7-((6-ethoxypyridin-3-yl)methyl)-3-(2-fluorophenyl)-4,5a,6,7,8,8a-hexahydropyrrolo[3,4-b][1,2,3]triazolo[1,5-d][1,4]oxazine hydrochloride] | > 10 | 83.3 |  |  |
| Cc1cc(CN2C[C@@H]3OCc4c(-c5ccc(F)cc5F)nnn4[C@H]3C2)c(C)o1.Cl [Example 22, (5aS,8aS)-3-(2,4-difluorophenyl)-7-((2,5-dimethylfuran-3-yl)methyl)-4,5a,6,7,8,8a-hexahydropyrrolo[3,4-b][1,2,3]triazolo[1,5-d][1,4]oxazine hydrochloride] | > 10 | 119 |  |  |
| Cc1cc(CN2C[C@@H]3[C@@H](C2)OCc2c(-c4ccc(F)cc4F)nnn23)c(C)o1.Cl [Example 23, (5aR,8aR)-3-(2,4-difluorophenyl)-7-((2,5-dimethylfuran-3-yl)methyl)-4,5a,6,7,8,8a-hexahydropyrrolo[3,4-b][1,2,3]triazolo[1,5-d][1,4]oxazine hydrochloride] | > 10 | 41.9 |  |  |
| Cl.Fc1ccc(-c2nnn3c2CO[C@H]2CN(C4CCOCC4)C[C@@H]23)c(F)c1 [Example 27, (5aS,8aS)-3-(2,4-difluorophenyl)-7-(tetrahydro-2H-pyran-4-yl)-4,5a,6,7,8,8a-hexahydropyrrolo[3,4-b][1,2,3]triazolo[1,5-d][1,4]oxazine hydrochloride] | > 10 | 20.4 |  |  |
| Cl.c1ccc(-c2nnn3c2CO[C@H]2CN(C4CCOCC4)C[C@@H]23)nc1 [Example 31, (5aS,8aS)-3-(pyridin-2-yl)-7-(tetrahydro-2H-pyran-4-yl)-4,5a,6,7,8,8a-hexahydropyrrolo[3,4-b][1,2,3]triazolo[1,5-d][1,4]oxazine hydrochloride] |  |  | > 10 | 241 |
| Cl.c1ccc(CN2C[C@@H]3[C@@H](C2)OCc2c(-c4ccccn4)nnn23)cc1 [Example 32, (5aR,8aR)-7-benzyl-3-(pyridin-2-yl)-4,5a,6,7,8,8a-hexahydropyrrolo[3,4-b][1,2,3]triazolo[1,5-d][1,4]oxazine hydrochloride] | > 10 | 37 |  |  |
| Cl.c1ccc(CN2C[C@@H]3OCc4c(-c5ccccn5)nnn4[C@H]3C2)cc1 [Example 33, (5aS,8aS)-7-benzyl-3-(pyridin-2-yl)-4,5a,6,7,8,8a-hexahydropyrrolo[3,4-b][1,2,3]triazolo[1,5-d][1,4]oxazine hydrochloride] | > 10 | 225 |  |  |
| Cl.Fc1ccc(-c2nnn3c2CO[C@@H]2CN(Cc4ccc(F)nc4)C[C@H]23)c(Cl)c1 [Example 39, (5aR,8aR)-3-(2-chloro-4-fluorophenyl)-7-((6-fluoropyridin-3-yl)methyl)-4,5a,6,7,8,8a-hexahydropyrrolo[3,4-b][1,2,3]triazolo[1,5-d][1,4]oxazine hydrochloride] | > 10 | 166 |  |  |
| Cl.Fc1ccc(-c2nnn3c2CO[C@@H]2CN(CC4CCOCC4)C[C@H]23)c(Cl)c1 [Example 42, (5aR,8aR)-3-(2-chloro-4-fluorophenyl)-7-((tetrahydro-2H-pyran-4-yl)methyl)-4,5a,6,7,8,8a-hexahydropyrrolo[3,4-b][1,2,3]triazolo[1,5-d][1,4]oxazine hydrochloride] | > 10 | 33.3 |  |  |
| Cl.Fc1ccc(-c2nnn3c2CO[C@H]2CN(CC4CCOCC4)C[C@@H]23)c(Cl)c1 [Example 43, (5aS,8aS)-3-(2-chloro-4-fluorophenyl)-7-((tetrahydro-2H-pyran-4-yl)methyl)-4,5a,6,7,8,8a-hexahydropyrrolo[3,4-b][1,2,3]triazolo[1,5-d][1,4]oxazine hydrochloride] | > 10 | 20.5 |  |  |
| Cl.Clc1ccc(-c2nnn3c2CO[C@H]2CN(C4CCOCC4)C[C@@H]23)c(Cl)c1 [Example 46, (5aS,8aS)-3-(2,4-dichlorophenyl)-7-(tetrahydro-2H-pyran-4-yl)-4,5a,6,7,8,8a-hexahydropyrrolo[3,4-b][1,2,3]triazolo[1,5-d][1,4]oxazine hydrochloride] | > 10 | 15.1 |  |  |
| Cl.Fc1ccc(-c2nnn3c2CO[C@@H]2CN(CCC4CCOCC4)C[C@H]23)c(Cl)c1 [Example 47, (5aR,8aR)-3-(2-chloro-4-fluorophenyl)-7-(2-(tetrahydro-2H-pyran-4-yl)ethyl)-4,5a,6,7,8,8a-hexahydropyrrolo[3,4-b][1,2,3]triazolo[1,5-d][1,4]oxazine hydrochloride] | > 10 | 26.8 |  |  |
| Cl.Fc1ccc(-c2nnn3c2CO[C@H]2CN(CCC4CCOCC4)C[C@@H]23)c(Cl)c1 [Example 48, (5aS,8aS)-3-(2-chloro-4-fluorophenyl)-7-(2-(tetrahydro-2H-pyran-4-yl)ethyl)-4,5a,6,7,8,8a-hexahydropyrrolo[3,4-b][1,2,3]triazolo[1,5-d][1,4]oxazine hydrochloride] | > 10 | 11.7 |  |  |
| COc1ccc(CN2C[C@@H]3[C@@H](C2)OCc2c(-c4ccc(F)cc4Cl)nnn23)cn1.Cl [Example 49, (5aR,8aR)-3-(2-chloro-4-fluorophenyl)-7-((6-methoxypyridin-3-yl)methyl)-4,5a,6,7,8,8a-hexahydropyrrolo[3,4-b][1,2,3]triazolo[1,5-d][1,4]oxazine hydrochloride] | > 10 | 112 |  |  |
| COc1ccc(CN2C[C@@H]3OCc4c(-c5ccc(F)cc5Cl)nnn4[C@H]3C2)cn1.Cl [Example 50, (5aS,8aS)-3-(2-chloro-4-fluorophenyl)-7-((6-methoxypyridin-3-yl)methyl)-4,5a,6,7,8,8a-hexahydropyrrolo[3,4-b][1,2,3]triazolo[1,5-d][1,4]oxazine hydrochloride] | > 10 | 99.9 |  |  |
| COc1ccc(CN2C[C@@H]3[C@@H](C2)OCc2c(-c4ccc(F)cc4F)nnn23)cn1.Cl [Example 51, (5aR,8aR)-3-(2,4-difluorophenyl)-7-((6-methoxypyridin-3-yl)methyl)-4,5a,6,7,8,8a-hexahydropyrrolo[3,4-b][1,2,3]triazolo[1,5-d][1,4]oxazine hydrochloride] | > 10 | 234 |  |  |
| COc1ccc(CN2C[C@@H]3OCc4c(-c5ccc(F)cc5F)nnn4[C@H]3C2)cn1.Cl [Example 52, (5aS,8aS)-3-(2,4-difluorophenyl)-7-((6-methoxypyridin-3-yl)methyl)-4,5a,6,7,8,8a-hexahydropyrrolo[3,4-b][1,2,3]triazolo[1,5-d][1,4]oxazine hydrochloride] | > 10 | 272 |  |  |
| Cl.Clc1ccc(-c2nnn3c2CO[C@H]2CN(CCC4CCOCC4)C[C@@H]23)c(Cl)c1 [Example 53, (5aS,8aS)-3-(2,4-dichlorophenyl)-7-(2-(tetrahydro-2H-pyran-4-yl)ethyl)-4,5a,6,7,8,8a-hexahydropyrrolo[3,4-b][1,2,3]triazolo[1,5-d][1,4]oxazine hydrochloride] | > 10 | 16.8 |  |  |
| Cl.Clc1ccc(-c2nnn3c2CO[C@@H]2CN(CCC4CCOCC4)C[C@H]23)c(Cl)c1 [Example 54, (5aR,8aR)-3-(2,4-dichlorophenyl)-7-(2-(tetrahydro-2H-pyran-4-yl)ethyl)-4,5a,6,7,8,8a-hexahydropyrrolo[3,4-b][1,2,3]triazolo[1,5-d][1,4]oxazine hydrochloride] | > 10 | 71.4 |  |  |
